# Experimental data taken from patent publication US20040180417A1, “Secretase/sheddase with asp-ase activity on the beta-site app-cleaving enzyme (bace, asp2, memepsin2)” (priority 2000, published 2004).
# Starred links: 1 amine or outer side, 2 acyl side, 3 side chain; linkers in the order of their positions; H or OH if unused. Non-standard residues stand in square brackets, D forms with d. Residues, ends and D or L forms follow the SMILES beside them. *: point of attachment. X1 = CC(N[*:1])C(=O)C(F)(F)C(=O)[*:2]; Cbz = O=C(OCc1ccccc1)*; Boc = CC(C)(C)OC(=O)*; CH2F = FC*
# Assays:
# [1] = test system: proBACE processing by PC-like enzyme; test: proBACE processing in HK293 cells co-expressing [BACEF]FG/V5 and PC-inhibitors (pulse-chase, immunoprecipitation, SDS-PAGE); assay type: cell-based, human; settings: 15 min [35S]Met pulse, chase 1 h or 2h; FG epitope; α1-PDX co-transfected or BFA present
# Experimental: FIG. 1: HK293 cells were transiently co-transfected with either ([BACEF]FG/V5+BDNF) [control, CTL] (A,C) or ([BACEF]FG/V5+α1-PDX) (B,D) cDNAs. Two days post-transfections the cells were pulse-labeled in the absence or presence of […] BFA for 15 min with [^35S]Met and then chased for 1 or 2h. Cell lysates were immunoprecipitated with either the FG or V5 mAbs and analysed by SDS-PAGE on 8% tricine gels. The migration position of the 53 kDa molecular mass standard and those of proBACE (pBACE) and BACE are emphasized.
# FIG. 2: [A] HK293 cells were transiently co-transfected with cDNAs coding for either ([BACEF]FG/V5+BDNF) [control, CTL], ([BACEF-R45A]FG/V5+BDNF) or ([BACEF-R42A]FG/V5+BDNF) or ([BACEF]FG/V5+either α1-PDX, the prosegments of furin, PC5, PC7, SKI-1, furin-mutated (α2M-F) or wild type (α2M) α2-macroglobulin. The cells were pulse-labeled for 20 min with [^35S]Met and then chased for 90 min. Cell lysates were immunoprecipitated with the FG mAb and analysed by SDS-PAGE on 8% tricine gels. [B] HK293 cells were transiently co-transfected with cDNAs coding for either ([BACEF]FG/V5+BDNF) [CTL], ([BACEF]FG/V5+furin) or ([BACEF]FG/V5+α1-PDX). The cells were then pulse-labeled for 2h with Na2[^35SO4]. Cell lysates were immunoprecipitated with the FG or V5 mAbs and analysed by SDS-PAGE on 8% tricine gels. […]
# proBACE = test: Exit of proBACE from the ER in HK293 cells (3h [35S]Met pulse); assay type: cell-based, human; settings: 90 μM BFA or 250 nM bafilomycin, 37° C.
# Experimental: FIG. 5: HK293 cells were transiently transfected with cDNAs coding for either [A,B] (BDNF+βAPPSW) [CTL] or ([BACEF]FG+βAPPSW), [C] [BACEF]FG or [BACES]FG. The cells were pulse-labeled for 3h with [^35S]Met at either 37° C. in the absence or presence of 90 μM BFA or 250 nM bafilomycin or at 20° C. Cell lysates were immunoprecipitated with either [A] the FG mAb or [B] the 1-16 Aβ antibody, and analysed by SDS-PAGE on 8% tricine gels. [C] FG antibody, and analysed by SDS-PAGE on 8% tricine gels. The arrowhead point to an ˜6 kDa intracellular stub of BACEF.
# Transfections and biosynthetic analyses—All transfections were done on 2−4×10^5 HK293 cells using Effectene (Qiagen) and a total of 1-1.5 μg of BACE contruct cDNAs subcloned into the vector pIRES2-EGFP. Two days post-transfection the cells were washed and then pulse-incubated for various times with either 200 μCi/ml of [^35S]Met; 400 μCi/ml Na2[^35SO4], [^3H]Leu, [^3H]Arg, [^3H]Ser; or 1 mCi/ml [^3H]palmitate EN) (20). Pulse-chase experiments with [^35S]Met were carried out as previously described (21). Cells were lysed in immunoprecipitation buffer [150 mM NaCl, 50 mM Tris-HCl pH 6.8, 0.5% NP40, 0.5% sodium deoxycholate and a protease inhibitor cocktail (Roche Diagnostics). The lysates and media were then prepared for immunoprecipitations as reported (22). […]
# BACE secretase/sheddase = BACE secretase/sheddase activity (BACE C-terminal fragments) in Neuro 2a cells; assay type: cell-based
# Experimental: (§1) FIG. 8: [A] Neuro 2a APPSW cells were transiently transfected with cDNA for [BACEF]FG. Cells were labeled with ^35S-Met for 3 hrs in the absence (−, DMSO control) or presence of 100 uM of a substrate based γ-secretase inhibitor (+γ-sec I, DFK-167 Enzyme Systems products). Cell lysates were immunoprecipitaed with FG antibodies, reduced and analyzed by SDS-PAGE on 8% tricine gels. Cell lysates [B] and media [C] were immunoprecipited with antibody APP711-03 and analyzed by SDS-PAGE on 8% tricine gels. [D] Media was immunoprecipited with the 1-40 Aβ antibody and analyzed on a 14% tricine gel. The exposure time was 3 days.
# Transfections and biosynthetic analyses—All transfections were done on 2−4×10^5 HK293 cells using Effectene (Qiagen) and a total of 1-1.5 μg of BACE contruct cDNAs subcloned into the vector pIRES2-EGFP. Two days post-transfection the cells were washed and then pulse-incubated for various times with either 200 μCi/ml of [^35S]Met; 400 μCi/ml Na2[^35SO4], [^3H]Leu, [^3H]Arg, [^3H]Ser; or 1 mCi/ml [^3H]palmitate EN) (20). Pulse-chase experiments with [^35S]Met were carried out as previously described (21). Cells were lysed in immunoprecipitation buffer [150 mM NaCl, 50 mM Tris-HCl pH 6.8, 0.5% NP40, 0.5% sodium deoxycholate and a protease inhibitor cocktail (Roche Diagnostics). The lysates and media were then prepared for immunoprecipitations as reported (22). The monoclonal antibodies used were directed against either the FL (Flag-M2; 1:500 dilution; Stratagene) or V5 (1:1000 dilution; Invitrogen) epitopes. Rabbit polyclonal antisera included those directed against aa 1-16 of human Aβ (produced in laboratory, dilution 1:200); anti-β-amyloid, recognizing mostly the C-terminal part of Aβ40 (A8326, dilution 1:200, Sigma); and FCA 18, recognizing all peptides starting with the Asp at the N-terminus of Aβ (23). Immunoprecipitates were resolved on SDS-PAGE (either 8% or 14% tricine gels) and autoradiographed (21). All PC inhibitor proteins were cloned in pcDNA3 (Invitrogen), including those of α1-PDX (8); the preprosegments of furin, PC7 (24), PC5 (25), SKI-1 (26,27); and wild type (α2-M) and furin-site mutated (α2-MG-F) α2-macroglubulin (28).
# C-terminal processing of BACE—In order to further characterize the nature of apparent C-terminal cleaved BACE fragments (FIG. 5C), the analysis of [BACEF]FG fragments immunoprecipitated with antiserum to Flag from HK293 cells were repeated. In addition to the 6 kDa fragment noted in FIG. 5C, fragments of 34, 15, and 11 kDa are apparent (FIG. 7). […] In addition, the intensity of the 11 and 6 kDa bands appear to diminish. It was expected that some of these BACE fragments would be disulfide linked, since it is known that the six Cys residues in the ectodomain form three intramolecular disulfide linkages (Cys^216-Cys^420, Cys^278-Cys^443, Cys^330-Cys^380) (41). The 34, 15, 11 and 6 kDa BACE fragments are also apparent when [BACEF]FG is expressed in Neuro 2a cells (FIG. 8). The relative levels of the 11 kDa fragment compared to the other cleaved fragments of BACE appear lower in Neuro 2a compared to HK293 cells. In any case, the sites of ectodomain cleavage are apparently the same in the two cell types. […] The significance of an apparent reduction in the level of the 6 kDa BACE fragment is unknown.
# γ-secretase = test: βAPP processing (Aβ, C99) in Neuro 2a APPSW cells; assay type: cell-based; settings: 100 uM inhibitor, 3 hrs
# Experimental: as §1
# C-terminal processing of BACE—In order to further characterize the nature of apparent C-terminal cleaved BACE fragments (FIG. 5C), the analysis of [BACEF]FG fragments immunoprecipitated with antiserum to Flag from HK293 cells were repeated. In addition to the 6 kDa fragment noted in FIG. 5C, fragments of 34, 15, and 11 kDa are apparent (FIG. 7). […] In addition, the intensity of the 11 and 6 kDa bands appear to diminish. It was expected that some of these BACE fragments would be disulfide linked, since it is known that the six Cys residues in the ectodomain form three intramolecular disulfide linkages (Cys^216-Cys^420, Cys^278-Cys^443, Cys^330-Cys^380) (41). The 34, 15, 11 and 6 kDa BACE fragments are also apparent when [BACEF]FG is expressed in Neuro 2a cells (FIG. 8). […]
# BACE = molecular target: T1, BACE (Mus musculus, UniProt P56818); test: In vitro β-secretase activity on a 20 aa synthetic βAPPSW peptide (RP-HPLC); assay type: biochemical
# T1 construct: TDEST454; FLAG (DYKDDDDK), inserted just after the signal peptide cleavage site (after Ala19) (N); made in house; host or cells: HK293 cells, transiently transfected; 10-20 fold-concentrated medium
# [proBACES]FG/V5 = In vitro PC-mediated processing of proBACES (Western blot); assay type: biochemical, mouse; settings: equivalent hydrolytic activities of PCs, 1-4 hours incubation
# T1 sequence (P56818 46-457 limits assumed): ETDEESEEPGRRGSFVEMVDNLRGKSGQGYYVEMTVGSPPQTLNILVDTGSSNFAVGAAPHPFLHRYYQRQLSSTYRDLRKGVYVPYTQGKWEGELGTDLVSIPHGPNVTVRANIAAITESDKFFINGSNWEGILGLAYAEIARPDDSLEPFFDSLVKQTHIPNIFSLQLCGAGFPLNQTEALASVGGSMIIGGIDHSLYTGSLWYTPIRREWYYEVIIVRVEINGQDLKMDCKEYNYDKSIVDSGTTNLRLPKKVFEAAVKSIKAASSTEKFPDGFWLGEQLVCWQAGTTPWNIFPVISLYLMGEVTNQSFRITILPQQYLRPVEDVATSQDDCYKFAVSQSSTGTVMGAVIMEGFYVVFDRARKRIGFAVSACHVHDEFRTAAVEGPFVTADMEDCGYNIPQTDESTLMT
compound,measurement,setting,value
"C[C@H]1CCC/C=C/[C@@H]2C[C@H](O)C[C@H]2[C@H](O)/C=C/C(=O)O1 [BFA, brefeldin A]",72 kDa proBACE form,[1],not apparent
same,escape of 66 kDa proBACE from the ER,proBACE,prevented
CNC(=O)[C@H](Cc1c[nH]c2ccccc12)NC(=O)[C@@H](CC(=O)NO)CC(C)C [GM6001],inhibition of BACE secretase/sheddase activity,BACE secretase/sheddase; Neuro 2a cells,did not inhibit
CO/C1=C\C(C)=C\[C@@H](C)[C@@H](O)[C@@H](C)C/C(C)=C/C=C/[C@H](OC)[C@@H]([C@@H](C)[C@@H](O)[C@H](C)[C@@]2(O)C[C@@H](O)[C@H](C)[C@@H](C(C)C)O2)OC1=O [bafilomycin],escape of 66 kDa proBACE from the ER,proBACE,retarding effect
CC(C)C[C@H](CC(=O)NO)C(=O)N[C@@H](Cc1ccc2ccccc2c1)C(=O)N[C@@H](C)C(=O)NCCN [TAPI-1],inhibition of BACE secretase/sheddase activity,BACE secretase/sheddase; Neuro 2a cells,did not inhibit
CCC(C)C(NC(=O)C(NC(=O)OC(C)(C)C)C(C)C)C(=O)NC(C)C(=O)C(F)(F)C(=O)NC(C(=O)NC(C(=O)OC)C(C)CC)C(C)C (stereo not shown) (Boc-VI[X1]VI-OMe; configuration not given here),"levels of BACE fragments (34, 15 and 11 kDa)","BACE secretase/sheddase; Neuro 2a APPSW cells transfected with [BACEF]FG, 100 uM inhibitor, 3 hrs",largely unchanged
same,inhibition of BACE secretase/sheddase activity,BACE secretase/sheddase; Neuro 2a cells,does not inhibit
same,cellular C99 levels,γ-secretase; cell lysates,elevates
same,Aβ formation,γ-secretase; media,completely inhibits
THLGIRLPLRSGLAGPPLGLRLPR [proBACE 22-45],inhibition of the Swedish peptide substrate cleavage,"BACE; 20 μM peptide pre-incubated with active BACE, substrate at 10 μM",20%
COC(=O)C[C@H](NC(=O)[C@H](C)NC(=O)[C@@H](NC(=O)OCc1ccccc1)C(C)C)C(=O)CF [Z-Val-Ala-Asp(OMe)-CH2F] (Cbz-Val-Ala-Asp(OMe)-CH2F),effect on BACE secretase/sheddase activity,"BACE secretase/sheddase; Neuro 2a cells, 100 uM",had no effect
furin,time to completely process proBACE into BACE,[proBACES]FG/V5,≤ 2 h
same,increase in the level of BACE activity,"BACE; pre-incubation of BACES-containing media with furin, four separate experiments",50±3%
